43 molecules from ChEMBL document CHEMBL3044689, “Synthesis and Rice-Blast Control Activity of Sulfonylamidines” (1992) can be followed below.

Holding throughout (type): functional
Assay [1] concerns Pyricularia oryzae. Nature of the assay: Antifungal activity against Magnaporthe oryzae infected on compound treated rice seedlings at 500 ppm incubated for 24 hr in moist chamber followed by incubation for 5 days in greenhouse conditions.
Assay [2] concerns Pyricularia oryzae. Nature of the assay: Antifungal activity against Magnaporthe oryzae infected on compound treated rice seedlings at 31.3 ppm incubated for 24 hr in moist chamber followed by incubation for 5 days in greenhouse conditions.
For assay [3], the system named is Pyricularia oryzae. As to the kind of experiment: Antifungal activity against Magnaporthe oryzae infected on compound treated rice seedlings at 7.8 ppm incubated for 24 hr in moist chamber followed by incubation for 5 days in greenhouse conditions.
Assay [4] relates to Pyricularia oryzae. As to the kind of experiment: Antifungal activity against Magnaporthe oryzae infected on compound treated rice seedlings at 125 ppm incubated for 24 hr in moist chamber followed by incubation for 5 days in greenhouse conditions.

With `CCCCCCCCC/C(=N/S(=O)(=O)c1ccc(C)cc1)N(CC)CC`, the Activity with Pyricularia oryzae [1] is 50%.
Take `Cc1ccc(S(=O)(=O)/N=C(/CC(C)Br)N(C)C)cc1` (stereo not drawn): the Activity in the assay on Pyricularia oryzae [1] turned out to be 30%.
`CCCCCCCCCCC/C(=N/S(=O)(=O)c1ccc(C)cc1)N(CC)CC` gave an Activity in the assay on Pyricularia oryzae [1] of 50%.
For the molecule `CCCCCC/C(=N/S(=O)(=O)c1ccc(C)cc1)N(CCCC)CCCC`, the Activity in the assay on Pyricularia oryzae [1] is 0%.
Regarding `CCCC/C(=N/S(=O)(=O)c1ccc(C)cc1)N(CC)CC`, the Activity in the assay on Pyricularia oryzae [1] was determined as 70%.
Still for that read-out and setting: then `CCN(CC)/C(=N\S(=O)(=O)c1ccc(C)cc1)C1CCCCC1`, with 30%; and `Cc1ccc(S(=O)(=O)/N=C(/c2ccc(N(C)C)cc2)N(C)C)cc1`, with 0%; and `Cc1ccc(S(=O)(=O)/N=C(/c2ccc([N+](=O)[O-])cc2)N(C)C)cc1`, with 0%.
`C/C=C/C(=N/S(=O)(=O)c1ccc(C)cc1)N(C)C` gave an Activity in the assay with Pyricularia oryzae [1] of 30%.
Still for that read-out and setting: then `CCCCCC/C(=N/S(=O)(=O)c1ccccc1)N(CC)CC`, with 30%.
Still for that read-out and setting: to `CCCCCCCCCCCCC/C(=N/S(=O)(=O)c1ccc(C)cc1)N(CC)CC` belongs 30%; to `CS/C(=N/S(=O)(=O)c1ccc(C)cc1)N(C)C`, 30%.
As for `CCCCCCC/C(=N/S(=O)(=O)c1ccc(C)cc1)N(CC)CC`, the Activity in the assay on Pyricularia oryzae [1] is recorded as 90%; in the assay on Pyricularia oryzae [2], 70%; in the assay with Pyricularia oryzae [3], 30%; in the assay with Pyricularia oryzae [4], 90%.
In the assay with Pyricularia oryzae [1], `CCCCCC/C(=N/S(=O)(=O)c1ccc(C)cc1)N1CCN(C)CC1` displayed an Activity of 30%.
For the molecule `CCSC1=NS(=O)(=O)c2ccccc2N1C`, the Activity was 90% in the assay on Pyricularia oryzae [1], 30% in the assay with Pyricularia oryzae [2], 0% with Pyricularia oryzae [3] and 70% in the assay with Pyricularia oryzae [4].
The molecule `CCN(CC)/C(=N\S(=O)(=O)c1ccc(C)cc1)C(C)C` showed an Activity in the assay on Pyricularia oryzae [1] of 0%.
Same read-out and setting: then `COc1ccc(/C(=N/S(=O)(=O)c2ccc(C)cc2)N(C)C)cc1`, with 70%.
The same measure, in the same setting: to `CCCCCC/C(=N/S(=O)(=O)c1ccccc1Cl)N(CC)CC` belongs 0%; to `C/C(=N/S(=O)(=O)c1ccc(C)cc1)N(C)C`, 70%; to `CO/C(=N/S(=O)(=O)c1ccc(C)cc1)N(C)C`, 0%.
Still for that read-out and setting: then `CCCCCC/C(=N/S(=O)(=O)c1ccc(C)cc1)N1CCCCC1`, with 50%; and `CCCCCC/C(=N/S(=O)(=O)c1ccc(C)cc1)N1CCCC1`, with 30%.
In turn, `CCC/C(=N/S(=O)(=O)c1ccc(C)cc1)N(C)C` yielded an Activity in the assay on Pyricularia oryzae [1] of 70%.
`Cc1ccc(S(=O)(=O)N=C(N(C)C)N(C)C)cc1`: the Activity in the assay on Pyricularia oryzae [1] was 30%.
Regarding `CCCCCCCCCCCCCCC/C(=N/S(=O)(=O)c1ccc(C)cc1)N(CC)CC`, the Activity in the assay on Pyricularia oryzae [1] amounted to 0%.
`Cc1ccc(S(=O)(=O)/N=C(/c2ccc(Cl)cc2)N(C)C)cc1` returned an Activity in the assay with Pyricularia oryzae [1] of 0%.
Molecule `CCCCCC/C(=N/S(=O)(=O)c1ccc(C)cc1)N(C)C` returned an Activity in the assay on Pyricularia oryzae [1] of 70%.
Still for that read-out and setting: to `CCCCCC/C(=N/S(=O)(=O)c1ccc(Cl)cc1)N(CC)CC` belongs 30%.
The same measure, in the same setting: then `CCCCCC/C(=N/S(=O)(=O)c1ccc(C)cc1)N1CCOCC1`, with 30%; and `Cc1ccc(S(=O)(=O)/N=C(/c2ccc(Cl)c(Cl)c2)N(C)C)cc1`, with 50%; and `CCCCCCCC/C(=N/S(=O)(=O)c1ccc(C)cc1)N(CC)CC`, with 70%.
The same measure, in the same setting: to `COC(=O)c1ccccc1/C(=C/S(=O)(=O)c1ccc(C)cc1)N(C)C` belongs 0%; to `Cc1ccc(S(=O)(=O)/N=C(/c2ccccc2)N(C)C)cc1`, 30%; to `CCN(CC)/C(=N\S(=O)(=O)c1ccc(C)cc1)C(C)(C)C`, 0%.
With `CCCCCC/C(=N/S(=O)(=O)c1ccc(C)cc1)N(CCC)CCC`, in the assay on Pyricularia oryzae [1], the Activity was found to be 50%.
On the same count and under the same terms, to `CCCCCCCCCC/C(=N/S(=O)(=O)c1ccc(C)cc1)N(CC)CC` belongs 50%.
The same measure, in the same setting: then `CCOC(=O)/C(=N/S(=O)(=O)c1ccc(C)cc1)N(C)C`, with 50%.
Take `CCCCCC/C(=N/S(=O)(=O)c1ccc(C)cc1)N(CC)CC`: the Activity with Pyricularia oryzae [1] was 97%; in the assay with Pyricularia oryzae [2], 90%; in the assay on Pyricularia oryzae [3] it was 50%; in the assay on Pyricularia oryzae [4], 90%.
In the assay on Pyricularia oryzae [1], `CCN(CC)/C(CC(C)C)=N\S(=O)(=O)c1ccc(C)cc1` gave an Activity of 0%.
With `CC(C)OP(=O)(OC(C)C)SCc1ccccc1` [IPROBENFOS], the Activity with Pyricularia oryzae [1] came to 70%; with Pyricularia oryzae [2] it was 30%; with Pyricularia oryzae [3], 0%; with Pyricularia oryzae [4], 50%.
The molecule `Cc1ccc(S(=O)(=O)/N=C(/C2CCCCC2)N(C)C)cc1` had an Activity in the assay with Pyricularia oryzae [1] of 50%.
Turning to `Cc1ccc(/C(=N/S(=O)(=O)c2ccc(C)cc2)N(C)C)cc1`, the Activity in the assay on Pyricularia oryzae [1] turned out to be 70%.
On to `CCCCC/C(=N/S(=O)(=O)c1ccc(C)cc1)N(CC)CC`, for which the Activity in the assay on Pyricularia oryzae [1] worked out at 90%; with Pyricularia oryzae [2] it was 70%; with Pyricularia oryzae [3], 30%; in the assay with Pyricularia oryzae [4], 90%.
